Source: article PMC6200594 (ACS infectious diseases, 2018)
Like-named read-outs stand apart in the source and are kept apart here.

Assays:
[1] = system: bacterial cell membrane disruption / depolarization; test: Membrane depolarization assay; type: cell-based; details: DiSC3 release
[2] = system: Ac2K-D-Ala-D-Lac; details: remodeled peptidoglycan precursor; cited from earlier work
[3] = system: bacterial cell membrane permeability; details: PI; cited from earlier work
[4] = system: bacterial cell membrane disruption / depolarization; details: DiSC3; cited from earlier work

| Substance | membrane depolarization activity (in words) [1] | decrease in binding affinity on replacing ᴅ-Ala-ᴅ-Ala with ᴅ-Ala-ᴅ-Lac [2] | induced cell membrane permeability (in words) [3] | membrane depolarization activity (in words) [4] |
| --- | --- | --- | --- | --- |
| CBP-vancomycin [compound 3] | also observed |  |  |  |
| vancomycin [compound 1] |  | 1,000 fold |  |  |
| oritavancin |  |  | activity in both assays has been observed | observed |
| telavancin |  |  | activity in both assays has been observed | observed |
